Laboratory results as given in ChEMBL document CHEMBL1641532, “Thiophene and bioisostere derivatives as new MMP12 inhibitors” (Bioorg Med Chem Lett, 2011).

Biological target: Macrophage metalloelastase (Homo sapiens, UniProt P39900)
Assay: Inhibition of MMP-12 catalytic domain

Chain of Macrophage metalloelastase (P39900 whole entry, the tested form may be a part): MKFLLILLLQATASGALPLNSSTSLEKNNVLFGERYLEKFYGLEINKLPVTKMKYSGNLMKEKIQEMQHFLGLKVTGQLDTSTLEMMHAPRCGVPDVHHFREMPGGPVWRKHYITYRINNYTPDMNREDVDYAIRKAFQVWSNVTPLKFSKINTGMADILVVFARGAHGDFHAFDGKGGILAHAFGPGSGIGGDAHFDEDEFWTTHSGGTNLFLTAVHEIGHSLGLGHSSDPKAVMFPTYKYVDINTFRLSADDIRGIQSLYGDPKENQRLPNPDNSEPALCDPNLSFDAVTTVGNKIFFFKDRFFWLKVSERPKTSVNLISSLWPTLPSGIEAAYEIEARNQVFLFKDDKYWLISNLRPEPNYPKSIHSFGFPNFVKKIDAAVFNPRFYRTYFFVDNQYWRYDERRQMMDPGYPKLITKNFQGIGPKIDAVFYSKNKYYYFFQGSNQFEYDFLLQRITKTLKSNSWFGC

| Structure (SMILES) | IC50 |
| --- | --- |
| O=C(NC[C@H]1CC[C@H](C(=O)O)CC1)c1cc(-c2ccc(OC(F)(F)F)cc2)ns1 | 3600 nM |
| O=C(NC[C@H]1CC[C@H](C(=O)O)CC1)c1cc(-c2ccc(OC(F)(F)F)cc2)sn1 | 31000 nM |

Compounds with a lower IC50, results first:

| IC50 | Structure (SMILES) |
| --- | --- |
| 400 nM | O=C(NC[C@H]1CC[C@H](C(=O)O)CC1)c1cc(-c2ccc(OC(F)(F)F)cc2)cs1 |
| 200 nM | O=C(O)C[C@@H](NC(=O)c1cc(-c2ccc(OC(F)(F)F)cc2)c(F)s1)c1ccccc1 |
| 85 nM | NC(=O)C[C@@H](NC(=O)c1cc(-c2ccc(OC(F)(F)F)cc2)c(F)s1)c1ccccc1 |
| 13 nM | O=C(O)C[C@@H](NC(=O)c1cc(-c2ccc(-c3ccncc3)cc2)c(F)s1)c1ccccc1 |
